pKi: −log10 of the molar value.
What was measured:
[1] = molecular target: T1, 5-hydroxytryptamine receptor 2A (Rattus norvegicus, UniProt P14842); assay: Binding affinity for rat 5-hydroxytryptamine 2A receptor using [3H]DOB
[2] = molecular target: T2, 5-hydroxytryptamine receptor 2C (Rattus norvegicus, UniProt P08909); assay: Binding affinity towards cloned rat 5-hydroxytryptamine 2C receptor from fundus tissue by [3H]mesulergine displacement.
T2 sequence (P08909 whole entry): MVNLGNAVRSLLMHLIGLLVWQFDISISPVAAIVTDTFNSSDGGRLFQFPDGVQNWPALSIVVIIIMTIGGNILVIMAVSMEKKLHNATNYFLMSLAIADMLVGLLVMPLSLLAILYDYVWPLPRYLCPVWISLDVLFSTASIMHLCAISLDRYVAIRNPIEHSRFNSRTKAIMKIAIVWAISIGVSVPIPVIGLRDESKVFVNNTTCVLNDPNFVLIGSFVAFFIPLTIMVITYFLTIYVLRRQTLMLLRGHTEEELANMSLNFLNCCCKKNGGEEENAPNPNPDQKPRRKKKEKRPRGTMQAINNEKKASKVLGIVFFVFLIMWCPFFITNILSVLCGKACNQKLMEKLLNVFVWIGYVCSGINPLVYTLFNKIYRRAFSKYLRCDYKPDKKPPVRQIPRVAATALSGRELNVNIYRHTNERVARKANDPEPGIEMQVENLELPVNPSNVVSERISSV

[3] = molecular target: T1, 5-hydroxytryptamine receptor 2A; assay: Binding affinity towards cloned rat 5-hydroxytryptamine 2A receptor by [3H]ketanserin displacement.
[4] = molecular target: T1, 5-hydroxytryptamine receptor 2A; assay: Binding affinity towards cloned rat Inhibition of binding towards 5-hydroxytryptamine 2A receptor at 100 nM concentration was determined using [3H]ketanserin as radioligand
[5] = molecular target: T1, 5-hydroxytryptamine receptor 2A; assay: Binding affinity towards cloned rat Inhibition of binding towards 5-hydroxytryptamine 2A receptor at 100 nM concentration was determined using [3H]DOB as radioligand
[6] = molecular target: Dopamine receptor; assay: Binding affinity towards Dopamine receptor; type: protein assay
[7] = molecular target: Sodium-dependent noradrenaline transporter (Homo sapiens, UniProt P23975); assay: Binding affinity towards NET
[8] = molecular target: Serotonin 3 (5-HT3) receptor; assay: Binding affinity towards 5-HT3 receptor; type: protein-complex assay
[9] = molecular target: 5-hydroxytryptamine receptor 5A (Homo sapiens, UniProt P47898); assay: Binding affinity towards 5-HT5A receptor
[10] = molecular target: 5-hydroxytryptamine receptor 1B (Homo sapiens, UniProt P28222); assay: Binding affinity towards 5-hydroxytryptamine 1B receptor
[11] = molecular target: 5-hydroxytryptamine receptor 1D (Homo sapiens, UniProt P28221); assay: Binding affinity towards 5-hydroxytryptamine 1D receptor
[12] = molecular target: Sodium-dependent serotonin transporter (Homo sapiens, UniProt P31645); assay: Binding affinity towards Serotonin transporter
[13] = molecular target: Muscarinic acetylcholine receptor; assay: Binding affinity towards Muscarinic acetylcholine receptor; type: protein assay
[14] = molecular target: 5-hydroxytryptamine receptor 7 (Homo sapiens, UniProt P34969); assay: Binding affinity towards 5-hydroxytryptamine 7 receptor
[15] = molecular target: Sodium-dependent dopamine transporter (Bos taurus, UniProt P27922); assay: Binding affinity towards DAT (bovine)
[16] = molecular target: GABA-A receptor; anion channel; assay: Binding affinity towards GABA-A benzodiazepine receptor; type: protein-complex assay, Rattus norvegicus
[17] = molecular target: T1, 5-hydroxytryptamine receptor 2A; assay: Binding affinity towards 5-hydroxytryptamine 2A receptor
[18] = molecular target: 5-hydroxytryptamine receptor 6 (Homo sapiens, UniProt P50406); assay: Binding affinity towards human 5-hydroxytryptamine 6 receptor
[19] = molecular target: T3, 5-hydroxytryptamine receptor 1A (Homo sapiens, UniProt P08908); assay: Binding affinity towards 5-hydroxytryptamine 1A receptor
T3 sequence (P08908 whole entry): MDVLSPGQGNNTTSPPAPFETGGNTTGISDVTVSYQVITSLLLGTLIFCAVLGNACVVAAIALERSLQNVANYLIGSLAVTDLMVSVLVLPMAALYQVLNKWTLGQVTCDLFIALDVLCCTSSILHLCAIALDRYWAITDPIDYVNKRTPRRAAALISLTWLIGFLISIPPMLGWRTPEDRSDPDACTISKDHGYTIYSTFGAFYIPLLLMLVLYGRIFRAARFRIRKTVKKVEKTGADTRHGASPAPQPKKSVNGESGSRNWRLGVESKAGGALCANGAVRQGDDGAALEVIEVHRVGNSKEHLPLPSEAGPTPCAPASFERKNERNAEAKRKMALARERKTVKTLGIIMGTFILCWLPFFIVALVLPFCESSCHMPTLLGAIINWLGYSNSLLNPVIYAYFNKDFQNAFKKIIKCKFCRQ

[20] = molecular target: T4, 5-hydroxytryptamine receptor 2C (Homo sapiens, UniProt P28335); assay: Binding affinity towards 5-hydroxytryptamine 2C receptor
T4 sequence (P28335 whole entry): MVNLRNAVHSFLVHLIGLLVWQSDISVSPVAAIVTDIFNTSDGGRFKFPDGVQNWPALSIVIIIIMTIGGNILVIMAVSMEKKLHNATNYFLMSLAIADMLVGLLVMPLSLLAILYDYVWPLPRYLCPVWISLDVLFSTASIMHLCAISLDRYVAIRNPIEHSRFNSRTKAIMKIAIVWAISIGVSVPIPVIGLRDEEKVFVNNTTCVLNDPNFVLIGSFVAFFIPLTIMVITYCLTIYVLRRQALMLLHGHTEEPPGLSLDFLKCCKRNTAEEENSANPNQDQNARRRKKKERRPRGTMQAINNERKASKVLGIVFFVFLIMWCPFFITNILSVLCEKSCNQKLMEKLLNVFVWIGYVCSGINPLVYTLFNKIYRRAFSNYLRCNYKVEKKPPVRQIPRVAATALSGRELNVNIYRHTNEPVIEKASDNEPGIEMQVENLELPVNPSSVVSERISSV

[21] = molecular target: T1, 5-hydroxytryptamine receptor 2A; assay: Binding affinity towards cloned rat 5-hydroxytryptamine 2A receptor from fundus tissue was determined using [3H]mesulergine as radioligand
[22] = molecular target: Alpha-2C adrenergic receptor (Homo sapiens, UniProt P18825); assay: Binding affinity towards Alpha-2C adrenergic receptor
[23] = molecular target: Muscarinic acetylcholine receptor; assay: Binding affinity towards Muscarinic receptor; type: protein assay
[24] = molecular target: Alpha-1B adrenergic receptor (Homo sapiens, UniProt P35368); assay: Binding affinity towards Alpha-1B adrenergic receptor
[25] = molecular target: Beta-1 adrenergic receptor (Homo sapiens, UniProt P08588); assay: Binding affinity towards Beta-1A adrenergic receptor
[26] = molecular target: Alpha-1A adrenergic receptor (Homo sapiens, UniProt P35348); assay: Binding affinity towards Alpha-1A adrenergic receptor
[27] = molecular target: Alpha-2A adrenergic receptor (Homo sapiens, UniProt P08913); assay: Binding affinity towards alpha-2A-Adrenergic receptor
[28] = molecular target: Alpha-2B adrenergic receptor (Homo sapiens, UniProt P18089); assay: Binding affinity towards Alpha-2B adrenergic receptor
[29] = molecular target: Beta-2 adrenergic receptor (Homo sapiens, UniProt P07550); assay: Binding affinity towards Beta-2A adrenergic receptor
Chain of Beta-2 adrenergic receptor (P07550 whole entry): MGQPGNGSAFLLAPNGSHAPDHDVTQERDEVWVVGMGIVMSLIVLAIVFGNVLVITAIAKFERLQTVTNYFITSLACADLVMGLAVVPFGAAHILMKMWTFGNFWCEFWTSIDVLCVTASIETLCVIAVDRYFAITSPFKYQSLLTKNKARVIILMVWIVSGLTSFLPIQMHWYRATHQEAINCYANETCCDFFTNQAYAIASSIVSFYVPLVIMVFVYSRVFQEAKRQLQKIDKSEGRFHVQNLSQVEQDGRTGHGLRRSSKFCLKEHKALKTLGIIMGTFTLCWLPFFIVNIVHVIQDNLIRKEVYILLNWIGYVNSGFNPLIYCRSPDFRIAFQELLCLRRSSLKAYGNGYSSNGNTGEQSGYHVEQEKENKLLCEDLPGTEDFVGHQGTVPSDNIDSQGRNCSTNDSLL

Chain of 5-hydroxytryptamine receptor 5A (P47898 whole entry): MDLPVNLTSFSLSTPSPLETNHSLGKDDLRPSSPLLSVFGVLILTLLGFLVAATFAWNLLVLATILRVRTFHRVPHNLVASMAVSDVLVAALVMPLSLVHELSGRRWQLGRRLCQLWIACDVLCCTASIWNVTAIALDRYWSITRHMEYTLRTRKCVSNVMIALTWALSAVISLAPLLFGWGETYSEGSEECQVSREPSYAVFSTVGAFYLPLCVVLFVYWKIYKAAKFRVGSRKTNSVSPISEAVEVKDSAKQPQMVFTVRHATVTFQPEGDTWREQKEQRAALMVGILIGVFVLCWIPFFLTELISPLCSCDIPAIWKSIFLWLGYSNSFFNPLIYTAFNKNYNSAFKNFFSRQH
Chain of 5-hydroxytryptamine receptor 1D (P28221 whole entry): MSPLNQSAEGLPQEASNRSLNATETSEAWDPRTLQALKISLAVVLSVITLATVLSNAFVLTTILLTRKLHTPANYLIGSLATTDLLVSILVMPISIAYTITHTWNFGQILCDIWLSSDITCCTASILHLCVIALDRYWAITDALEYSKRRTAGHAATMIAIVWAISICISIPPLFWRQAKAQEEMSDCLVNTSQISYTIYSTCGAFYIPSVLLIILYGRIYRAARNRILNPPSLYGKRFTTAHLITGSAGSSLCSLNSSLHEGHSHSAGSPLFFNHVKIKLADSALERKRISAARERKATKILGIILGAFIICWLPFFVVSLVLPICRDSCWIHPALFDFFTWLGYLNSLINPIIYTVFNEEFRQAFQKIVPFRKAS
T1 sequence (P14842 whole entry): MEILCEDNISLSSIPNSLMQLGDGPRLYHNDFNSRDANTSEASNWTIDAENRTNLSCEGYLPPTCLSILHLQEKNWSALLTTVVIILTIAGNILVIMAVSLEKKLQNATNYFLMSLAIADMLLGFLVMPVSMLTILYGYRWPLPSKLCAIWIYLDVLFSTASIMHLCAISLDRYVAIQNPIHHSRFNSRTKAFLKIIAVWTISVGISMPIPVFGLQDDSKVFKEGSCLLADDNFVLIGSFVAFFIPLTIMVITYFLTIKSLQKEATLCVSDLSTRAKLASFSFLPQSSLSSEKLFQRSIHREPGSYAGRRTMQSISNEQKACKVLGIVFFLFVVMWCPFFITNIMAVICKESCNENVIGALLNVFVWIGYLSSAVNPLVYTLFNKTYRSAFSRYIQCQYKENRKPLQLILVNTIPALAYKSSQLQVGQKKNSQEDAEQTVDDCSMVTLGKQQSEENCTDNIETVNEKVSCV
Chain of 5-hydroxytryptamine receptor 1B (P28222 whole entry): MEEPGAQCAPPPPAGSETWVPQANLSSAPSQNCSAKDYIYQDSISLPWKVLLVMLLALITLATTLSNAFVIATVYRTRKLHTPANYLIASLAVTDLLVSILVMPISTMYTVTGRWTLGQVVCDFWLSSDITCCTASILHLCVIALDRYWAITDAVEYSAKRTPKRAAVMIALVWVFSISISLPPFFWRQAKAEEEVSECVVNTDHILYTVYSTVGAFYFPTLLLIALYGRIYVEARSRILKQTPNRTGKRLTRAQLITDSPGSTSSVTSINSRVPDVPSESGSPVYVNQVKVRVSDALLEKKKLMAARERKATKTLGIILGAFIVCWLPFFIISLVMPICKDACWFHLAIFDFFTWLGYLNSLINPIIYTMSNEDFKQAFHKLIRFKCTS
Chain of 5-hydroxytryptamine receptor 6 (P50406 whole entry): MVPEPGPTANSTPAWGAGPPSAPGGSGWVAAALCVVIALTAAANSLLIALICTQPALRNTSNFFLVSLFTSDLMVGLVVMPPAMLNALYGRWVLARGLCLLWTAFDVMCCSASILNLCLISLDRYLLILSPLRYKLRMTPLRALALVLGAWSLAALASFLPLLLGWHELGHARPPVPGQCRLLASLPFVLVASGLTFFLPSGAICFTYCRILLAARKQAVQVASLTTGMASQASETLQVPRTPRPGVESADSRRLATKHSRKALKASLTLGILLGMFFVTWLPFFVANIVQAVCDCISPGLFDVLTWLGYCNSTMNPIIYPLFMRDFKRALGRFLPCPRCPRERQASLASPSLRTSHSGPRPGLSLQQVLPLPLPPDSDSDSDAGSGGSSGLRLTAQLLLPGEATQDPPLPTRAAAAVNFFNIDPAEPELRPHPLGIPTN
Chain of 5-hydroxytryptamine receptor 7 (P34969 whole entry): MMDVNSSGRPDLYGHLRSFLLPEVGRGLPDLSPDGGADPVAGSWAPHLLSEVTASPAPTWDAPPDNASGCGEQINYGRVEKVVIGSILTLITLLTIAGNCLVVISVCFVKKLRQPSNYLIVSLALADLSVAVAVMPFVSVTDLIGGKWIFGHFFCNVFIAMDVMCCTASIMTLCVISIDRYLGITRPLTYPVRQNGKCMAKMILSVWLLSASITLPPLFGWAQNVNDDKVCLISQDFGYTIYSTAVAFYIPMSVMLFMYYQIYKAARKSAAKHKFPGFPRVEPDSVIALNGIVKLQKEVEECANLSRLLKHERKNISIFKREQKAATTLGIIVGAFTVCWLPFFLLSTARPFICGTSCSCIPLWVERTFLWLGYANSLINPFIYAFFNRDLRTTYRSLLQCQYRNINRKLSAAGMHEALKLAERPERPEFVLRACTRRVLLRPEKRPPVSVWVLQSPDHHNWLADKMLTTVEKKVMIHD
Chain of Sodium-dependent dopamine transporter (P27922 whole entry): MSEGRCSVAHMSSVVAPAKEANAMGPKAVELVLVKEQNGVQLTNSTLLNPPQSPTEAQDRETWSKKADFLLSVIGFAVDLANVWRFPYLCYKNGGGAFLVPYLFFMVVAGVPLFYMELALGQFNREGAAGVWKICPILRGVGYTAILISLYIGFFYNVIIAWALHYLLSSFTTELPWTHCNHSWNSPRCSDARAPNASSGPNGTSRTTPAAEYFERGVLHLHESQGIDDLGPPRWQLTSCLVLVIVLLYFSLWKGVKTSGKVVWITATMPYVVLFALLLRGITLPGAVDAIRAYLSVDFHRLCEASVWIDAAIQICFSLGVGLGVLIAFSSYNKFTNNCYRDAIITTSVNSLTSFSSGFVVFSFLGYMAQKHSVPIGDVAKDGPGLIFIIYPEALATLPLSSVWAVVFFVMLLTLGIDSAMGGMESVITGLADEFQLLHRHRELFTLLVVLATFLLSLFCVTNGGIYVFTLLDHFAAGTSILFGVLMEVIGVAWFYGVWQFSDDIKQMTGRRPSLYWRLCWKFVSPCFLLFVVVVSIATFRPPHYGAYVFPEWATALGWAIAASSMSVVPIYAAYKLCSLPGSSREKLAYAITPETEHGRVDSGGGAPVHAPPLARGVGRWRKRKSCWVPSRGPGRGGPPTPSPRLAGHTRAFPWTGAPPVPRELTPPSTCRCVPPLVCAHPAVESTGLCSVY
Chain of Sodium-dependent noradrenaline transporter (P23975 whole entry): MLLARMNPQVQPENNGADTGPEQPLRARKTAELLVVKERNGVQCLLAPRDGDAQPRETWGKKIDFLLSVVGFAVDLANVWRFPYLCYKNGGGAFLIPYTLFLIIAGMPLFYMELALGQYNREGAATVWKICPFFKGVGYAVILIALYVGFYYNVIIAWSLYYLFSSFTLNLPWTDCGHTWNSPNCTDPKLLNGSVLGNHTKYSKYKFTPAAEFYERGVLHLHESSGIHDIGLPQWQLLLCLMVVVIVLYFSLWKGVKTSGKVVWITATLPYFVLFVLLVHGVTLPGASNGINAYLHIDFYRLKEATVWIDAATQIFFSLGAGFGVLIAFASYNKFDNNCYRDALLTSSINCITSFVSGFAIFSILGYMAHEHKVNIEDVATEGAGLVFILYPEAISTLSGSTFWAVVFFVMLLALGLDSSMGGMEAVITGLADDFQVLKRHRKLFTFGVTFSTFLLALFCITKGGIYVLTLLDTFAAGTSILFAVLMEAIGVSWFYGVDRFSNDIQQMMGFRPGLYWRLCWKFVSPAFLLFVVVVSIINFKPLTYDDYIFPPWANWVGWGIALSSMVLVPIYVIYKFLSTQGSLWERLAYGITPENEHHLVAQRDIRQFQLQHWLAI
Chain of Sodium-dependent serotonin transporter (P31645 whole entry): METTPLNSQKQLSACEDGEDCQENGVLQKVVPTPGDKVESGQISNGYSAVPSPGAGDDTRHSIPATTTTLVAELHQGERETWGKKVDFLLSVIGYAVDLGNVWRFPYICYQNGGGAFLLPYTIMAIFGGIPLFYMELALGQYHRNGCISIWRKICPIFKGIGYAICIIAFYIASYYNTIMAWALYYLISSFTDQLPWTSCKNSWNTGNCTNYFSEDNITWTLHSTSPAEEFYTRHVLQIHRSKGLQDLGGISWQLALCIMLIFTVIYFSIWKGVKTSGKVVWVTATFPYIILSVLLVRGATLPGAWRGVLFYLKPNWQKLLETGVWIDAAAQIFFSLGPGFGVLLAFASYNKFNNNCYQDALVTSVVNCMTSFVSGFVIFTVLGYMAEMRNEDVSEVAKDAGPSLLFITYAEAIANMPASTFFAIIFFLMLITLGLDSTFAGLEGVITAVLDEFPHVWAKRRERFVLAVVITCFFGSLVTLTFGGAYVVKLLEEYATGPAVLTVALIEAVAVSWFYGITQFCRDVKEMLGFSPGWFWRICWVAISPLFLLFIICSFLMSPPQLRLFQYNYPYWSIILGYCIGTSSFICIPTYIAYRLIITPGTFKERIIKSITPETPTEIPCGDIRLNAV

COc1ccc2[nH]c3c(c2c1)CCNC3
pKi [1]: 5.85
pKi [2]: 5.66
pKi [3]: 5.32

C1=NCCc2c1[nH]c1ccccc21
pKi [4]: 5.59
pKi [5]: 5.67
pKi [2]: 5.96

Brc1cccc2[nH]c3c(c12)CCN=C3
pKi [2]: 6.85
pKi [3]: 6.41

COc1cccc2c3c([nH]c12)C=NCC3
pKi [1]: 5.59
pKi [2]: 5.87
pKi [3]: 5.49

COc1cccc2c3c([nH]c12)CNCC3
pKi [1]: 6.40
pKi [2]: 5.90
pKi [3]: 6.19

CC1=NCCc2c1[nH]c1ccccc21
Ki [6]: > 10 µM
pKi [7]: < 5.00
pKi [8]: < 5.00
pKi [9]: 6.07
pKi [10]: < 5.00
pKi [11]: < 5.00
pKi [12]: < 5.00
Ki [13]: > 10 µM
pKi [14]: 6.55
pKi [15]: < 5.00
pKi [16]: < 5.00
pKi [17]: 5.94
pKi [18]: 5.84
pKi [19]: < 5.78
pKi [20]: 5.73

COc1ccc2[nH]c3c(c2c1)CCN=C3C
Ki [6]: > 10 µM
pKi [7]: < 5.39
pKi [8]: < 5.00
pKi [9]: < 5.00
pKi [10]: < 5.00
pKi [11]: < 5.00
pKi [12]: < 5.00
Ki [13]: > 10 µM
pKi [14]: 5.53
pKi [15]: < 5.00
pKi [16]: < 5.00
pKi [17]: 5.25
pKi [18]: 5.71
pKi [19]: < 5.00
pKi [20]: 6.03

CC(C)Oc1cccc2[nH]c3c(c12)CCN=C3
pKi [21]: 5.85

CC1=NCCc2c1[nH]c1cccc(OC(C)C)c21
pKi [2]: 7.59
pKi [3]: 6.33

C1=NCCc2c1[nH]c1cccc(OCc3ccccc3)c21
pKi [2]: 6.70
pKi [3]: 6.91

Brc1ccc2c3c([nH]c2c1)C=NCC3
pKi [2]: 5.68
pKi [3]: 5.88

Brc1ccc2c3c([nH]c2c1)CNCC3
pKi [2]: 6.60
pKi [3]: 6.62

COc1ccc2c3c([nH]c2c1)CNCC3
pKi [1]: 5.66
pKi [22]: 5.76
pKi [8]: < 5.00
pKi [9]: < 5.00
Ki [23]: > 10 µM
pKi [24]: < 5.00
pKi [10]: < 5.00
pKi [11]: < 5.00
pKi [25]: < 5.00
pKi [12]: < 5.00
pKi [26]: < 5.00
pKi [14]: 5.85
pKi [2]: < 5.00
pKi [27]: 5.86
pKi [17]: 5.34
pKi [28]: 6.85
pKi [29]: < 5.00
pKi [18]: < 5.00
pKi [19]: < 5.00
pKi [20]: < 5.00
pKi [3]: 5.34

Brc1cccc2[nH]c3c(c12)CCNC3
pKi [1]: 7.10
pKi [2]: 6.89
pKi [3]: 6.74

Brc1ccc2[nH]c3c(c2c1)CCNC3
pKi [2]: 6.68
pKi [3]: 6.30

COc1cccc2[nH]c3c(c12)CCNC3
pKi [1]: 7.12
pKi [2]: 6.85
pKi [3]: 6.89

COc1cccc2[nH]c3c(c12)CCN=C3
pKi [1]: 6.30
pKi [2]: 7.12
pKi [3]: 6.33

Brc1ccc2[nH]c3c(c2c1)CCN=C3
pKi [2]: 5.92
pKi [3]: 5.76

COc1ccc2[nH]c3c(c2c1)CCN=C3
pKi [2]: 5.93
pKi [3]: 5.63

Brc1cccc2c3c([nH]c12)C=NCC3
pKi [1]: 6.94
pKi [2]: 6.85
pKi [3]: 6.96

Brc1cccc2c3c([nH]c12)CNCC3
pKi [1]: 7.68
pKi [2]: 7.32
pKi [3]: 7.66

COc1ccc2c3c([nH]c2c1)C=NCC3 [CGS-19281A]
pKi [1]: < 5.00
pKi [2]: < 5.00
pKi [3]: < 5.00

COc1ccc2c(c1)[nH]c1c(C)nccc12 [HARMINE]
pKi [22]: 6.09
Ki [6]: > 10 µM
pKi [7]: 5.49
pKi [8]: < 5.00
pKi [9]: < 5.00
pKi [24]: < 5.00
pKi [10]: < 5.00
pKi [11]: < 5.00
pKi [25]: < 5.00
pKi [12]: < 5.00
pKi [26]: < 5.00
Ki [13]: > 10 µM
pKi [14]: 5.26
pKi [15]: < 5.00
pKi [16]: < 5.00
pKi [27]: 5.60
pKi [17]: 5.11
pKi [28]: 5.95
pKi [29]: < 5.00
pKi [18]: 5.83
pKi [19]: < 5.00
pKi [20]: 5.03

c1ccc2c3c([nH]c2c1)CNCC3 [TRYPTOLINE]
pKi [1]: 5.52
pKi [2]: < 5.00
pKi [3]: 5.42

From ChEMBL document CHEMBL1144986, “Binding of beta-carbolines at 5-HT(2) serotonin receptors” (Bioorg Med Chem Lett, 2003)
